Source: ChEMBL document CHEMBL4507270 (2021)

Key:
[1] = target: G protein-coupled receptor kinase 3 (Homo sapiens) (UniProt P35626)
[2] = system: Mast/stem cell growth factor receptor Kit (Homo sapiens), P10721 [V559D,V654A]
[3] = target: Fibroblast growth factor receptor 3 (Homo sapiens, UniProt P22607)
[4] = target: Mitogen-activated protein kinase 3 (Homo sapiens) (UniProt P27361)
[5] = target: Mitogen-activated protein kinase kinase kinase 1 (Homo sapiens) (UniProt Q13233)
[6] = target: Receptor-type tyrosine-protein kinase FLT3 (Homo sapiens) (UniProt P36888)
[7] = target: Serine/threonine-protein kinase 26 (Homo sapiens) (UniProt Q9P289)
[8] = target: Megakaryocyte-associated tyrosine-protein kinase (Homo sapiens) (UniProt P42679)
[9] = target: Citron Rho-interacting kinase (Homo sapiens) (UniProt O14578)
[10] = target: Serine/threonine-protein kinase/endoribonuclease IRE1 (Homo sapiens) (UniProt O75460)
[11] = system: Epidermal growth factor receptor (Homo sapiens), P00533 [G719C]
[12] = target: Serine/threonine-protein kinase TAO1 (Homo sapiens) (UniProt Q7L7X3)
[13] = target: Mitogen-activated protein kinase kinase kinase 14 (Homo sapiens) (UniProt Q99558)
[14] = target: Serine/threonine-protein kinase TBK1 (Homo sapiens) (UniProt Q9UHD2)
[15] = target: Alpha-1B adrenergic receptor (Homo sapiens) (UniProt P35368); conditions: Compound concentration 10.0 uM
[16] = target: Receptor tyrosine-protein kinase erbB-2 (Homo sapiens) (UniProt P04626)
[17] = target: Non-receptor tyrosine-protein kinase TYK2 (Homo sapiens) (UniProt P29597)
[18] = target: Ribosomal protein S6 kinase alpha-6 (Homo sapiens) (UniProt Q9UK32)
[19] = target: D(1A) dopamine receptor (Homo sapiens) (UniProt P21728); conditions: Compound concentration 10.0 uM
[20] = target: Discoidin domain-containing receptor 2 (Homo sapiens) (UniProt Q16832)
[21] = target: STE20/SPS1-related proline-alanine-rich protein kinase (Homo sapiens) (UniProt Q9UEW8)
[22] = target: Mitogen-activated protein kinase kinase kinase 2 (Homo sapiens) (UniProt Q9Y2U5)
[23] = target: 5-hydroxytryptamine receptor 3A (Homo sapiens) (UniProt P46098); conditions: Compound concentration 10.0 uM
[24] = target: Mitogen-activated protein kinase 14 (Homo sapiens) (UniProt Q16539)
[25] = target: Serine/threonine-protein kinase pim-1 (Homo sapiens) (UniProt P11309)
[26] = target: Cyclin-dependent kinase 11A (Homo sapiens) (UniProt Q9UQ88)
[27] = target: Mitogen-activated protein kinase 13 (Homo sapiens) (UniProt O15264)
[28] = system: Phosphatidylinositol 4,5-bisphosphate 3-kinase catalytic subunit alpha isoform (Homo sapiens), P42336 [I800L]
[29] = target: LIM domain kinase 2 (Homo sapiens) (UniProt P53671)
[30] = target: NUAK family SNF1-like kinase 2 (Homo sapiens) (UniProt Q9H093)
[31] = target: Calcium-dependent protein kinase 1 (Plasmodium falciparum) (UniProt P62344)
[32] = target: MAP kinase-interacting serine/threonine-protein kinase 1 (Homo sapiens) (UniProt Q9BUB5)
[33] = system: Epidermal growth factor receptor (Homo sapiens), P00533 [UNDEFINED MUTATION]
[34] = target: Leukocyte tyrosine kinase receptor (Homo sapiens) (UniProt P29376)
[35] = target: Serine/threonine-protein kinase PAK 3 (Homo sapiens) (UniProt O75914)
[36] = target: Epidermal growth factor receptor (Homo sapiens) (UniProt P00533)
[37] = target: Myosin light chain kinase family member 4 (Homo sapiens) (UniProt Q86YV6)
[38] = target: Dual specificity protein kinase CLK2 (Homo sapiens) (UniProt P49760)
[39] = target: Tyrosine-protein kinase ABL1 (Homo sapiens) (UniProt P00519)
[40] = target: 5-hydroxytryptamine receptor 2C (Homo sapiens) (UniProt P28335); conditions: Compound concentration 10.0 uM
[41] = target: Ephrin type-A receptor 3 (Homo sapiens) (UniProt P29320)
[42] = target: Sodium-dependent serotonin transporter (Homo sapiens) (UniProt P31645); conditions: Compound concentration 10.0 uM
[43] = target: Receptor-type tyrosine-protein kinase FLT3 (Homo sapiens) (UniProt P36888); remark: listed apart in the source
[44] = target: Maternal embryonic leucine zipper kinase (Homo sapiens) (UniProt Q14680)
[45] = target: Beta-1 adrenergic receptor (Homo sapiens) (UniProt P08588); conditions: Compound concentration 10.0 uM
[46] = Compound concentration 1000.0 nM
[47] = Compound concentration 100.0 nM

Chain of Receptor-type tyrosine-protein kinase FLT3 (Homo sapiens) (P36888 whole entry): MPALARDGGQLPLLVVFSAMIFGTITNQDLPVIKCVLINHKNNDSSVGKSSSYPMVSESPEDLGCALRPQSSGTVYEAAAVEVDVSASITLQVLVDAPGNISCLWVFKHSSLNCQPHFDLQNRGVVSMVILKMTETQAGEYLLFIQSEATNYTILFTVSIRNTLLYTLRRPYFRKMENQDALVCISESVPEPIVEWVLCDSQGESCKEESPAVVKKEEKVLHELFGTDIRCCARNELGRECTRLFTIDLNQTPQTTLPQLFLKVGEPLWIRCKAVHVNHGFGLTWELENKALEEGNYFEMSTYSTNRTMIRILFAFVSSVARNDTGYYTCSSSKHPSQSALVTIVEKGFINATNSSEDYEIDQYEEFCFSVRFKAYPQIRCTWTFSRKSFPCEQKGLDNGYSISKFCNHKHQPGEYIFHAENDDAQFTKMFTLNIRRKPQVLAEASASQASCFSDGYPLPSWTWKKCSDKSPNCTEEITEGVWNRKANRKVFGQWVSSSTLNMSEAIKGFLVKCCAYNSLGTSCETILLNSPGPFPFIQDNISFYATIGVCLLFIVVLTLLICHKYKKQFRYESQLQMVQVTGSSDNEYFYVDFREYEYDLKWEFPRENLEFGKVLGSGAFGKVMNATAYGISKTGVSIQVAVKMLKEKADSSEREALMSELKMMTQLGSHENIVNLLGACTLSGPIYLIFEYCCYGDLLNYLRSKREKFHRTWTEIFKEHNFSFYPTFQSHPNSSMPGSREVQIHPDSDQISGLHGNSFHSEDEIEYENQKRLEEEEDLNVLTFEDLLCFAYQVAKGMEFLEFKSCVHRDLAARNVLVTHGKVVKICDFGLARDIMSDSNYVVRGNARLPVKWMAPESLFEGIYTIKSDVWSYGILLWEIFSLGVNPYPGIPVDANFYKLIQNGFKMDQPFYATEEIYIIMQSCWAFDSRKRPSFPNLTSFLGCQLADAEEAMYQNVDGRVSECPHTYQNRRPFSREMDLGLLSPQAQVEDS
Chain of Non-receptor tyrosine-protein kinase TYK2 (Homo sapiens) (P29597 whole entry): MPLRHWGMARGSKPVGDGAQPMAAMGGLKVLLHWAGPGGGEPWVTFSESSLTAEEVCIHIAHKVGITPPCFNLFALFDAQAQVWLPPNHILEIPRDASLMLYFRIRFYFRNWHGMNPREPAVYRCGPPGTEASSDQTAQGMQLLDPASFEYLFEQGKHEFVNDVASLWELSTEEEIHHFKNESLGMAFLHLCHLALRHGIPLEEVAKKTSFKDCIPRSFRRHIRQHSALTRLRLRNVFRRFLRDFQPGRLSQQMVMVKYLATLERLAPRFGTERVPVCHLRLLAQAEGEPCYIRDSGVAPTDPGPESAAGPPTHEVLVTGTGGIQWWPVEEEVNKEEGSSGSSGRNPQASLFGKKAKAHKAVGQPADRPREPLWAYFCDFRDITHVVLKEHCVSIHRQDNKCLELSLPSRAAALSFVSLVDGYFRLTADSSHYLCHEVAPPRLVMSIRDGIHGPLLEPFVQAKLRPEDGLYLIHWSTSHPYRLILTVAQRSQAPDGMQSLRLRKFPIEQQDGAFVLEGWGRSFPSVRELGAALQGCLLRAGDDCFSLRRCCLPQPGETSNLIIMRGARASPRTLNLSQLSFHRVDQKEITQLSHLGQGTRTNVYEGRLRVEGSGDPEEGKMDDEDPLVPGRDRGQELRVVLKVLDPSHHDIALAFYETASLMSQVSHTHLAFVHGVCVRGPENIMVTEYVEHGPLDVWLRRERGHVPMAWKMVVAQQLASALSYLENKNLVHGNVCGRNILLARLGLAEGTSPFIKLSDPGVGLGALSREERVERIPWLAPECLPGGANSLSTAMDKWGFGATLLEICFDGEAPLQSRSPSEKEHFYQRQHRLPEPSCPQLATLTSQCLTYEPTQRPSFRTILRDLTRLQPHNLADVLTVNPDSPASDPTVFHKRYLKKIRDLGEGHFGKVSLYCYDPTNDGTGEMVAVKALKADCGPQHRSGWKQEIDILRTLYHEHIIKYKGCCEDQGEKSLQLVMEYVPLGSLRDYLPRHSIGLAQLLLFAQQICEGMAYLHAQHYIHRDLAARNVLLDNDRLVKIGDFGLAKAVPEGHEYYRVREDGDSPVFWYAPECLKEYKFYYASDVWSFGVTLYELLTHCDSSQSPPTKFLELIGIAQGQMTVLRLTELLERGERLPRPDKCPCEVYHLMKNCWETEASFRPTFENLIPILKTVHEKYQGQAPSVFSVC
Chain of Citron Rho-interacting kinase (Homo sapiens) (O14578 whole entry): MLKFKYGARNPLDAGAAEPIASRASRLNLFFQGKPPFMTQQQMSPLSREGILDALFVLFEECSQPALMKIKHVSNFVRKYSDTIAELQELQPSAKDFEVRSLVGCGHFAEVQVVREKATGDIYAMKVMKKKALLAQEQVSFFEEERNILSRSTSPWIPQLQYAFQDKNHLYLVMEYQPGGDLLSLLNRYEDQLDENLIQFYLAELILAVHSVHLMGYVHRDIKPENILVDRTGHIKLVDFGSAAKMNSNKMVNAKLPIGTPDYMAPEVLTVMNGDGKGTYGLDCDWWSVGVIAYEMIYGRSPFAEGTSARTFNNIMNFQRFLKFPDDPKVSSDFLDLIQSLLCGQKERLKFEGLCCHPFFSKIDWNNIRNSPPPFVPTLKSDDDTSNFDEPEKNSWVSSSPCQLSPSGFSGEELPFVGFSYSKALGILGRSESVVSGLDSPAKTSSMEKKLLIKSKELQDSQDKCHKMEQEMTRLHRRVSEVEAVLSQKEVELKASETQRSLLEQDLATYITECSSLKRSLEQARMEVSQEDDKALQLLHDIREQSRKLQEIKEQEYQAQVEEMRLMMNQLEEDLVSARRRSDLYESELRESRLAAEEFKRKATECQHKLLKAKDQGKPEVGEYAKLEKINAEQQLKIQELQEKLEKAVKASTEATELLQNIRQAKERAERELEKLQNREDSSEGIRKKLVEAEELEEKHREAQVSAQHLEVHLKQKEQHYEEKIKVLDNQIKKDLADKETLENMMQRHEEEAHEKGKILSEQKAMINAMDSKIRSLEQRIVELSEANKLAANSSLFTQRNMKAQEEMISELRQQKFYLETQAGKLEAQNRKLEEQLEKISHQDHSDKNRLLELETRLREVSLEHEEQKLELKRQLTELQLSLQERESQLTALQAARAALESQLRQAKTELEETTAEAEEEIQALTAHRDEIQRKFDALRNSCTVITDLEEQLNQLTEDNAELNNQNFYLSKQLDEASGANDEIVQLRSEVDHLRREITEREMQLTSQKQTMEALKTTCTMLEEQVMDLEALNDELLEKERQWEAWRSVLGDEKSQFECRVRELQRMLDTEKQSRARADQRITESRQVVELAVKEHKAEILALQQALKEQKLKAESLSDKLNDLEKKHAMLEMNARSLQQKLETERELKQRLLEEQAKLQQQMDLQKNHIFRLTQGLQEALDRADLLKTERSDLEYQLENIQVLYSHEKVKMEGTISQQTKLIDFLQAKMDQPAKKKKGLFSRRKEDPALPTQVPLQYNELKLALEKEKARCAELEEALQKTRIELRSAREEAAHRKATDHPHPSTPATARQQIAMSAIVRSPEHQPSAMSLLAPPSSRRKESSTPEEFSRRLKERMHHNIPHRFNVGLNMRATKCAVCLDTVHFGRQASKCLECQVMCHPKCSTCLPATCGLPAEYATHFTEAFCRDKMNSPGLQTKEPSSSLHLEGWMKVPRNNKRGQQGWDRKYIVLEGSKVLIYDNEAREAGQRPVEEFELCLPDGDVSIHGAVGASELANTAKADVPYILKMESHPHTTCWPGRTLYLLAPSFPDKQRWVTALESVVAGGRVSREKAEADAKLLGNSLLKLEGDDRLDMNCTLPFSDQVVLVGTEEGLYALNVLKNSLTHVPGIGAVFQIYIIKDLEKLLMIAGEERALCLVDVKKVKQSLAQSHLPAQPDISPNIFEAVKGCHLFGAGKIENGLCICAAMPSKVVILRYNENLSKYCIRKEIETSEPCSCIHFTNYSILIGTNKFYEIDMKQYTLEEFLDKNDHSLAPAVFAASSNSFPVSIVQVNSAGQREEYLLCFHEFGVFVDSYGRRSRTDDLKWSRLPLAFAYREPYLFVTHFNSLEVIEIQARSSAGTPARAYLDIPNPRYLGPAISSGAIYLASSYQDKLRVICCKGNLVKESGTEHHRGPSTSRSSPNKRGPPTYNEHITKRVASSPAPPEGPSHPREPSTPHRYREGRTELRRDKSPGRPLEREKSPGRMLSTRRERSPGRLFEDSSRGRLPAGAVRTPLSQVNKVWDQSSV
Chain of Serine/threonine-protein kinase 26 (Homo sapiens) (Q9P289 2-416 limits assumed): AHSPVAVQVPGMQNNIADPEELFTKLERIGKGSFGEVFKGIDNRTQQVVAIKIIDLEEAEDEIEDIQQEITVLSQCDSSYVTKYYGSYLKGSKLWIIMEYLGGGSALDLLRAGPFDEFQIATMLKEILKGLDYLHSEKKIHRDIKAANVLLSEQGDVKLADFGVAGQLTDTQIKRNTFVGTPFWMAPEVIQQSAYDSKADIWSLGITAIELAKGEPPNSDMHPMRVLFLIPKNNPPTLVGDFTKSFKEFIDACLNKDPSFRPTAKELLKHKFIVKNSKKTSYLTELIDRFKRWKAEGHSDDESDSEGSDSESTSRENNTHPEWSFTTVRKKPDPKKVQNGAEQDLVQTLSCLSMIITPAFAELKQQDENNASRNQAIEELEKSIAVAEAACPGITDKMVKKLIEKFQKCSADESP
Chain of Serine/threonine-protein kinase pim-1 (Homo sapiens) (P11309 whole entry, looked up): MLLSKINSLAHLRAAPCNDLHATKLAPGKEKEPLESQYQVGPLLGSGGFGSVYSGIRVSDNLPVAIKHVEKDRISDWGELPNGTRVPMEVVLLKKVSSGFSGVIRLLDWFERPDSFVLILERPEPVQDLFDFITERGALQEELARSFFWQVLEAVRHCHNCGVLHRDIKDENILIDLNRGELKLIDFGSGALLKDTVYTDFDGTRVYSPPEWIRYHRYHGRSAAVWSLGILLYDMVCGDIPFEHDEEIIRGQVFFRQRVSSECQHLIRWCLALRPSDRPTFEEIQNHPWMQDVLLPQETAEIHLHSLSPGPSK

`Cc1cc(NC(=O)c2cccc(S(F)(F)(F)(F)F)c2)cc(-n2ccn3nc(-c4cccnc4)cc23)c1` [BAY-309] showed a residual activity [1, 46] of 74.8%, a residual activity [2, 46] of 100% and a residual activity [3, 46] of 90.7%. It also gave a residual activity [4, 46] of 86.8%, a residual activity [5, 46] of 90% and a residual activity [6, 46] of 100%. For the same molecule, the residual activity [7, 46] was 100%, the residual activity [8, 46] was 100% and the residual activity [9, 46] was 60.7%. For the same molecule, the residual activity [10, 46] was 99.2%, the residual activity [11, 46] was 94.2% and the residual activity [12, 46] was 100%. The residual activity [13, 46] was 73.8%, the residual activity [14, 46] was 49.7% and the inhibition [15] was -8.99%. The residual activity [16, 46] was 100%, the residual activity [17, 46] was 51% and the residual activity [18, 46] was 100%. For the same molecule, the inhibition [19] was 20.6%, the residual activity [20, 46] was 18.2% and the residual activity [21, 46] was 100%. For the same molecule, the residual activity [22, 46] was 52.7%, the inhibition [23] was -8.73% and the residual activity [24, 46] was 100%. The residual activity [25, 46] was 95.6%, the residual activity [26, 46] was 95.4% and the residual activity [27, 46] was 79.6%. It also gave a residual activity [28, 46] of 96%, a residual activity [29, 46] of 95.3% and a residual activity [30, 46] of 100%. It also gave a residual activity [31, 46] of 95.1%, a residual activity [32, 46] of 100% and a residual activity [33, 46] of 100%. It also gave a residual activity [34, 46] of 100%, a residual activity [35, 46] of 100% and a residual activity [36, 46] of 100%. The residual activity [37, 46] was 91.4%, the residual activity [38, 46] was 100% and the residual activity [39, 46] was 73.6%. It also gave an inhibition [40] of 66%, a residual activity [41, 46] of 100% and an inhibition [42] of 19.2%. The residual activity [43, 46] was 100%, the residual activity [44, 46] was 100% and the inhibition [45] was -7.94%.
Molecule `Cc1cc(C)c(-n2ccn3nc(-c4cccnc4)cc23)cc1NC(=O)c1cc(C#N)cc(S(F)(F)(F)(F)F)c1` [BAY-826] has a residual activity [1, 47] of 90.6%, a residual activity [2, 47] of 89.4% and a residual activity [3, 47] of 95.6%. It also gave a residual activity [4, 47] of 95.2%, a residual activity [5, 47] of 78.3% and a residual activity [6, 47] of 100%. It also gave a residual activity [7, 47] of 81.8%, a residual activity [8, 47] of 80.4% and a residual activity [9, 47] of 69.9%. It also gave a residual activity [10, 47] of 68.3%, a residual activity [11, 47] of 91.6% and a residual activity [12, 47] of 45.2%. It also gave a residual activity [13, 47] of 100%, a residual activity [14, 47] of 62.8% and an inhibition [15] of -0.87%. It also gave a residual activity [16, 47] of 84.2%, a residual activity [17, 47] of 76.9% and a residual activity [18, 47] of 74.9%. The inhibition [19] was 4.82%, the residual activity [20, 47] was 1.8% and the residual activity [21, 47] was 64.6%. It also gave a residual activity [22, 47] of 86.4%, an inhibition [23] of 18.4% and a residual activity [24, 47] of 0%. It also gave a residual activity [25, 47] of 92%, a residual activity [26, 47] of 89.9% and a residual activity [27, 47] of 65.6%. The residual activity [28, 47] was 92.8%, the residual activity [29, 47] was 89% and the residual activity [30, 47] was 86.1%. It also gave a residual activity [31, 47] of 88.9%, a residual activity [32, 47] of 83.8% and a residual activity [33, 47] of 72.9%. It also gave a residual activity [34, 47] of 32.8%, a residual activity [35, 47] of 26.1% and a residual activity [36, 47] of 85.1%. It also gave a residual activity [37, 47] of 100%, a residual activity [38, 47] of 91% and a residual activity [39, 47] of 74.6%. For the same molecule, the inhibition [40] was 34.5%, the residual activity [41, 47] was 89.8% and the inhibition [42] was 11.1%. For the same molecule, the residual activity [43, 47] was 84.1%, the residual activity [44, 47] was 100% and the inhibition [45] was 9.41%.
